Structures can show the parent of a compound that is named as a salt. Where two headings read alike, the source gives them in different places.
Columns and labels:
[1] = biological target: T1, α1A (rat submaxillary gland) (Rattus norvegicus, UniProt P43140); experiment: Radioligand binding with [3H]-prazosin, α1A; conditions: rat submaxillary gland, [3H]-prazosin
T1 construct: α1A (rat submaxillary gland); from tissue; host or cells: rat submaxillary gland
T1 sequence (P43140 1-466): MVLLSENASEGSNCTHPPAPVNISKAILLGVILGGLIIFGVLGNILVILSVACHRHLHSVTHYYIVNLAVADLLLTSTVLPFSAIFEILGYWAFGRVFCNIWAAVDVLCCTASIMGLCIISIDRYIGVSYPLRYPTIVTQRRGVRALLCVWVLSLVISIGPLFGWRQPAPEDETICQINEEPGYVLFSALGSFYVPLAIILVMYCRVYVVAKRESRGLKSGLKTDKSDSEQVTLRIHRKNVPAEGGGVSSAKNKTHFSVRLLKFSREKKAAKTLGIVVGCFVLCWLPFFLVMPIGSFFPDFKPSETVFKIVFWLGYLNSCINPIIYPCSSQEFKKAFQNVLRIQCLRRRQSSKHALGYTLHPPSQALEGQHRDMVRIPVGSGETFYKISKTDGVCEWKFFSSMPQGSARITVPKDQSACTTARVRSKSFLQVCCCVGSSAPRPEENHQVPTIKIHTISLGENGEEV
Experimental: (§1) For purposes of discussing α1 adrenoceptor subtypes, the IUPHAR convention of using lower case letters to define molecular clones and upper case letters to indicate pharmacologically defined adrenoceptors has been followed. Compounds of formula I were evaluated in radioligand binding assays specific for α1A (rat submaxillary gland), α1b (hamster receptor expressed in mouse fibroblasts) and α1d (rat receptor expressed in mouse fibroblasts) using [^3H]-prazosin as the radioligand as described in Knepper, et al. J. Pharm.

[2] = biological target: T2, α1A (rabbit urethra) (Oryctolagus cuniculus, UniProt O02824); experiment: Agonist contraction of smooth muscle tissue, rabbit urethra; assay type: cell-based; conditions: rabbit urethra; for EC50: read-out: Agonist Tissue Response (pD2) α1A (rab ureth) (converted)
T2 construct: tested for α1A functional activity using rabbit urethra; from tissue; host or cells: rabbit urethra
T2 sequence (O02824 1-466): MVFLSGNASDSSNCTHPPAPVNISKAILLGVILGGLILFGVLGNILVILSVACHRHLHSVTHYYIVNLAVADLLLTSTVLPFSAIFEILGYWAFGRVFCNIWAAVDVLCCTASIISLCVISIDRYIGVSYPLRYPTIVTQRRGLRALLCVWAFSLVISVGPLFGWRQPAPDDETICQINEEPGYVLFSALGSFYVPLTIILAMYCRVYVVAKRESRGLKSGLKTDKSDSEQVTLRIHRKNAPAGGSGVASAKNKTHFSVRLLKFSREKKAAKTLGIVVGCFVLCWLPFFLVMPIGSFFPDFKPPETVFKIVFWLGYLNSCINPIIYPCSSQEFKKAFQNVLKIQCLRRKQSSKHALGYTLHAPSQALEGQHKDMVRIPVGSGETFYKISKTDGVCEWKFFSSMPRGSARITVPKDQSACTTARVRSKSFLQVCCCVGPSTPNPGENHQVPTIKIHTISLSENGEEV
Experimental: Most of the compounds were tested for α1A functional activity using rabbit urethra as follows. Female New Zealand white rabbits (2.0-3.5 Kg) were sedated with CO2 and decapitated. […] Subsequent experimental conditions were as described above for the other tissues. Agonist concentration response curves were cumulative except for the vas deferens assay in which the transient response made such measurements impractical.

[3] = biological target: T3, α1B (rat spleen) (Rattus norvegicus, UniProt P15823); experiment: Agonist contraction of smooth muscle tissue, rat spleen; assay type: cell-based; conditions: rat spleen; for EC50: read-out: Agonist Tissue Response (pD2) α1B (rat spleen) (converted)
T3 construct: α1B (rat spleen) and α1D (rat aorta) receptors; from tissue; host or cells: rat spleen
T3 sequence (P15823 1-515): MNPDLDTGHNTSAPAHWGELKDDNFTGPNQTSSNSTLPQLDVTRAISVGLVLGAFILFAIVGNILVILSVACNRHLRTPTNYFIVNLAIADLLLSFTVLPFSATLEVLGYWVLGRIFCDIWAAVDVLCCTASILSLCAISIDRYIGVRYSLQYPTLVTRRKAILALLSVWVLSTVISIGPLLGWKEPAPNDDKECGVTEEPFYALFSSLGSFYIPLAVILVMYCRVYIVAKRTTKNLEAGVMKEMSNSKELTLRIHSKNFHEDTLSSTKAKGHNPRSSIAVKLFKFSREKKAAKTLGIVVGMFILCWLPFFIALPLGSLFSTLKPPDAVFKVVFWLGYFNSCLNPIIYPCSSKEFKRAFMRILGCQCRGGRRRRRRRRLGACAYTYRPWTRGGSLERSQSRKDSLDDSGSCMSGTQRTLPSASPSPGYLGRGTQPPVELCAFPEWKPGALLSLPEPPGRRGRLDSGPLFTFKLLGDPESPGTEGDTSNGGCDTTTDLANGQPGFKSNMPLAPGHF

[4] = biological target: T4, α1D (rat aorta) (Rattus norvegicus, UniProt P23944); experiment: Agonist contraction of smooth muscle tissue, rat aorta; assay type: cell-based; conditions: rat aorta, endothelium removed; for EC50: read-out: Agonist Tissue Response (pD2) α1D (rat aorta) (converted)
T4 construct: α1B (rat spleen) and α1D (rat aorta) receptors; from tissue; host or cells: rat aorta strips, endothelium removed
T4 sequence (P23944 1-561): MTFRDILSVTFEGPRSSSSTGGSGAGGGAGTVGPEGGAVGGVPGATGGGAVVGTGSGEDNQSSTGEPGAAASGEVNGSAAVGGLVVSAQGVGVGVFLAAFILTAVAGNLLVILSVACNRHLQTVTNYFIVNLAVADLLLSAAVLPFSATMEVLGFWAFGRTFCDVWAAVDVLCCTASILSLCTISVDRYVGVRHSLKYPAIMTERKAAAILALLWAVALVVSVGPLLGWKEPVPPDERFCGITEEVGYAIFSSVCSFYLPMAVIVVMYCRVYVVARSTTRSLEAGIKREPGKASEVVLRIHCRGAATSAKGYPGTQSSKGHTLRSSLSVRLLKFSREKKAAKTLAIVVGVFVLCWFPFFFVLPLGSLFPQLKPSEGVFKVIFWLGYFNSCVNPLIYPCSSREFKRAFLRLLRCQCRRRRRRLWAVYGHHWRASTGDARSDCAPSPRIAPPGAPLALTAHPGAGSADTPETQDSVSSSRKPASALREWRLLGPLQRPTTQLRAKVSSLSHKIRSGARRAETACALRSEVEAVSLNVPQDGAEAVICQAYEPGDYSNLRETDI

[5] = biological target: T5, α1d (rat receptor expressed in mouse fibroblasts) (Rattus norvegicus, UniProt P23944); experiment: Radioligand binding with [3H]-prazosin, α1d; conditions: rat receptor expressed in mouse fibroblasts, [3H]-prazosin
T5 construct: expressed in transfected cells; host or cells: mouse fibroblasts
T5 sequence (P23944 1-561): T4 sequence (P23944 1-561)
Experimental: as §1

[6] = read-out: Radioligand Binding Ki α1d (Rat)

Compound | Ki [1] | EC50 [2] | further results
CS(=O)(=O)Nc1ccc(O)c2c1CCCC2c1c[nH]cn1 (stereo not drawn) [Example 24, N-[5,6,7,8-tetrahydro-4-hydroxy-5-(1H-imidazol-4-yl)-1-naphthalenyl]methanesulfonamide, maleate] | 0.712 µM | 24.5 µM | EC50 [3]: > 1000 µM; EC50 [4]: > 1000 µM
O=C(O)C=CC(=O)O.O=S(=O)(Nc1cccc2c1CCCC2c1c[nH]cn1)C1CC1 (stereo not drawn) [Example 27, N-[5,6,7,8-tetrahydro-(1H-imidazol-4-yl)-1-naphthalenyl]cyclopropanesulfonamide, maleate] | 0.531 µM | – | Ki [5, 6]: 2.67 µM; Agonist Tissue Response (pD2) α1A (rab ureth) [2]: 5.25
CCCS(=O)(=O)Nc1cccc2c1CCCC2c1c[nH]cn1 (stereo not drawn) [Example 63, N-[5-(1H-imidazol-5-yl)-5,6,7,8-tetrahydro-1-naphthalenyl]-1-propanesulfonamide] | 1.72 µM | – | –
O=S(=O)(Nc1cccc2c1CCCC2c1cnc[nH]1)c1ccc(Cl)s1 (stereo not drawn) [Example 72, 5-Chloro-N-[5-(1H-imidazol-5-yl)-5,6,7,8-tetrahydro-1-naphthalenyl]-2-thiophenesulfonamide] | 1.51 µM | – | Ki [5, 6]: 2.28 µM
Cc1nn(C)c(Cl)c1S(=O)(=O)Nc1cccc2c1CCCC2c1cnc[nH]1 (stereo not drawn) [Example 74, 5-Chloro-N-[5-(1H-imidazol-5-yl)-5,6,7,8-tetrahydro-1-naphthalenyl]-1,3-dimethyl-1H-pyrazole-4-sulfonamide] | 5.06 µM | – | –
CS(=O)(=O)Nc1cccc2c1CCCCC2c1c[nH]cn1 (stereo not drawn) [Example 38, N-[5-(1H-imidazol-4-yl)-6,7,8,9-tetrahydro-5H-benzo[a]cyclohepten-1-yl]methanesulfonamide, maleate] | 1.36 µM | 19.1 µM | Ki [5, 6]: 2.54 µM
CS(=O)(=O)Nc1ccc(Cl)c2c1CCCC2c1c[nH]cn1 (stereo not drawn) [Example 43, N-[4-chloro-5-(1H-imidazol-4-yl)-5,6,7,8-tetrahydro-1-naphthalenyl]methanesulfonamide, maleate] | 0.445 µM | 44.7 µM | Ki [5, 6]: 2.86 µM; EC50 [3]: > 1000 µM; EC50 [4]: > 1000 µM
O=S(=O)(CC(F)(F)F)Nc1cccc2c1CCCC2c1c[nH]cn1 (single isomer, unassigned; (-)) [Example 35, (−)-N-[5,6,7,8-tetrahydro-5-(1H-imidazol-4-yl)-1-naphthalenyl]-2,2,2-trifluoroethanesulfonamide] | 2.18 µM | 81.3 µM | EC50 [3]: > 1000 µM; EC50 [4]: > 1000 µM
Cc1ccc(NS(C)(=O)=O)c2c1C(c1c[nH]cn1)CCC2 (stereo not drawn) [Example 23, N-[5,6,7,8-tetrahydro-5-(1H-imidazol-4-yl)-4-methyl-1-naphthalenyl]methanesulfonamide, maleate] | 0.391 µM | 39.8 µM | Ki [5, 6]: 2.67 µM; EC50 [3]: > 1000 µM; EC50 [4]: > 1000 µM
CCS(=O)(=O)Nc1ccc(Cl)c2c1CCCC2c1c[nH]cn1 (stereo not drawn) [Example 42, N-[4-chloro-5-(1H-imidazol-4-yl)-5,6,7,8-tetrahydro-1-naphthalenyl]ethanesulfonamide, maleate] | 0.359 µM | > 1000 µM | Ki ([5]; Radioligand Binding Ki α1d (Rat)): 2.28 µM
Cc1ccc(S(=O)(=O)Nc2cccc3c2CCCC3c2cnc[nH]2)cc1 (stereo not drawn) [Example 68, N-[5-(1H-imidazol-5-yl)-5,6,7,8-tetrahydro-1-naphthalenyl]-4-methylbenzenesulfonamide] | 5.28 µM | – | –
Cc1noc(C)c1S(=O)(=O)Nc1cccc2c1CCCC2c1cnc[nH]1 (stereo not drawn) [Example 61, N-[5-(1H-imidazol-5-yl)-5,6,7,8-tetrahydro-1-naphthalenyl]-3,5-dimethyl-4-isoxazolesulfonamide] | 1.56 µM | – | –
CCCCS(=O)(=O)Nc1cccc2c1CCCC2c1cnc[nH]1 (stereo not drawn) [Example 64, N-[5-(1H-imidazol-5-yl)-5,6,7,8-tetrahydro-1-naphthalenyl]-1-butanesulfonamide] | 4.15 µM | – | –
Cc1ccccc1S(=O)(=O)Nc1cccc2c1CCCC2c1cnc[nH]1 (stereo not drawn) [Example 69, N-[5-(1H-imidazol-5-yl)-5,6,7,8-tetrahydro-1-naphthalenyl]-2-methylbenzenesulfonamide] | 4.47 µM | – | –
CCC(O)(c1cccc(NS(=O)(=O)CC)c1)c1c[nH]cn1 (stereo not drawn) [Example 55, N-[3-(1-hydroxy-1-(1H-imidazol-4-yl)propyl)phenyl]ethanesulfonamide] | 3.65 µM | – | Ki [5, 6]: 2.34 µM
CCS(=O)(=O)Nc1cccc2c1CCCCC2c1c[nH]cn1 (stereo not drawn) [Example 40, N-[5-(1H-imidazol-4-yl)-6,7,8,9-tetrahydro-5H-benzo[a]cyclohepten-1-yl]ethanesulfonamide, maleate] | 1.34 µM | – | –
Methyl 2-({[5-(1H-imidazol-5-yl)-5,6,7,8-tetrahydro-1-naphthalenyl]amino}sulfonyl)-3-thiophenecarboxylate [Example 75] | 4.6 µM | – | –
O=S(=O)(CC(F)(F)F)Nc1cccc(Cc2c[nH]cn2)c1 [Example 78, 2,2,2-trifluoro-N-[3-(1H-imidazol-4-ylmethyl)phenyl]ethanesulfonamide, maleate] | – | 8.91 µM | –
CCS(=O)(=O)Nc1ccc(OC)c2c1CCCC2c1c[nH]cn1.O=C(O)C=CC(=O)O (stereo not drawn) [Example 25, maleate] | 2.46 µM | – | –
CC(=O)Nc1nc(C)c(S(=O)(=O)Nc2cccc3c2CCCC3c2cnc[nH]2)s1 (stereo not drawn) [Example 76, N-[5-({[5-(1H-imidazol-5-yl)-5,6,7,8-tetrahydro-1-naphthalenyl]amino}sulfonyl)-4-methyl-1,3-thiazol-2-yl]acetamide] | 3.21 µM | – | –
CCS(=O)(=O)Nc1ccc(OC)c2c1CCCC2c1c[nH]cn1.O=C(O)C=CC(=O)O (stereo not drawn) [Example 25] | – | – | Agonist Tissue Response (pD2) α1A (rab ureth) [2]: 4.48; Agonist Tissue Response (pD2) α1B (rat spleen) [3]: 3.12; Agonist Tissue Response (pD2) α1D (rat aorta) [4]: <3.00
